# Assay results reported in article PMC5039532, “Design and Synthesis of Analogues of Marine Natural Product Galaxamide, an N-methylated Cyclic Pentapeptide, as Potential Anti-Tumor Agent in Vitro” (Marine Drugs, 2016).
# Read-outs that look alike come from different tables or passages of the source.
# Tests used:
# [1] = tested on: drug-resistant lung cancer cell line A549/DPP; format: cell-based, human; settings: 48 h
# Method: (§1) Lung cancer A549, drug-resistant lung cancer A549-DPP, human hepatocellular carcinoma HepG2 and hepatocellular carcinoma SMMC-7721 cells obtained from the China cell bank of the Institute of Biochemistry and were cultured in DMEM culture medium (DMEM, Corning, NY, USA) containing 10% fetal bovine serum (FBS, Hyclone, Logan, UT, USA), 1% penicillin-streptomycin and an antifungal agent in a 5% CO2 humidified atmosphere at 37 °C. The culture medium was replaced once in a day. Trypsin digestion method was adopted for cell propagation. Upon reaching 80%–90% confluence, the cells were rinsed twice with PBS. A certain amount of 0.25% trypsin digestion solution was then added and maintained for 3–5 min at 37 °C. Afterward, DMEM culture medium containing 10% fetal bovine serum was added to terminate the digestion. The cells were then blown well to form single cell suspensions.
# (§2) The cell viability was determined by measuring the ability of cells to transform MTT (Genview, Houston, TX, USA) to a purple formazan dye. The cells were seeded in 96-well tissue culture plates at 2.5 × 10^3 cells/well for 24 h. The cells were then incubated with galaxamide and its analogues for 48 h. After incubation, 20 μL/well of MTT solution (5 mg/mL phosphate buffered saline) were added and incubated for 5 h. The medium was aspirated and replaced with 100 μL/well of DMSO to dissolve the formazan salt. The color intensity of the formazan solution, which reflects the cell growth condition, was measured at 570 nm using a microplate spectrophotometer (SpectroAma™ 250, Winooski, VT, USA).
# [2] = tested on: Lung cancer cell line A549; format: cell-based, human; settings: 48 h
# Method: as §1, §2
# [3] = tested on: hepatocellular carcinoma SMMC-7721 cells; format: cell-based, human; settings: for IC50 Value SMMC-7721: 48 h
# Method: as §1, §2
# [4] = tested on: human hepatocellular carcinoma HepG2; format: cell-based; settings: 48 h
# Method: as §1, §2
# [5] = amide bond, 15-membered ring, PyBOP/DIEA, DCM, 0.7 mM, 25.0 °C
# [6] = ratio of IC50 values, MTT assay
IC50 Value A549-DPP [1] [µg/mL],IC50 Value A549 [2] [µg/mL],IC50 Value SMMC-7721 [3] [µg/mL],IC50 Value HepG2 [4] [µg/mL],SMILES,other results
27.2,8.74,1.25,12.15,"CC(C)C[C@H]1NC(=O)[C@@H](CC(C)C)NC(=O)[C@H](CC(C)C)N(C)C(=O)[C@@H](CC(C)C)NC(=O)[C@H](Cc2ccccc2)NC1=O [Compound 1, cyclo(Phe-D-Leu-N-Me-Leu-D-Leu-D-Leu)]","anti-tumor activity towards SMMC-7721, fold higher than galaxamide [3, 6]: 9 fold; anti-tumor activity towards SMMC-7721, fold higher than reference DPP (cisplatin) [3, 6]: 10 fold"
15.01,5.27,5.48,7.76,"CC(C)C[C@@H]1NC(=O)[C@@H](Cc2ccccc2)NC(=O)[C@@H](CC(C)C)NC(=O)[C@@H](CC(C)C)NC(=O)[C@H](CC(C)C)N(C)C1=O [Compound 2, cyclo(D-Phe-Leu-N-Me-Leu-D-Leu-D-Leu)]",–
11.41,5.17,2.77,18.82,"CC(C)C[C@@H]1NC(=O)[C@H](Cc2ccccc2)NC(=O)[C@@H](CC(C)C)NC(=O)[C@@H](CC(C)C)NC(=O)[C@@H](CC(C)C)N(C)C1=O [Compound 3, cyclo(Phe-Leu-D-N-Me-Leu-D-Leu-D-Leu)]",–
19.71,8.89,1.53,16.58,"CC(C)C[C@@H]1NC(=O)[C@@H](CC(C)C)N(C)C(=O)[C@H](CC(C)C)NC(=O)[C@@H](Cc2ccccc2)NC(=O)[C@@H](CC(C)C)NC1=O [Compound 4, cyclo(D-Phe-Leu-D-N-Me-Leu-Leu-D-Leu)]",–
23.61,6.89,2.74,5.23,"CC(C)C[C@H]1NC(=O)[C@@H](Cc2ccccc2)NC(=O)[C@H](CC(C)C)N(C)C(=O)[C@@H](CC(C)C)NC(=O)[C@H](CC(C)C)N(C)C1=O [Compound 5, cyclo(D-Phe-D-Leu-N-Me-Leu-D-Leu-N-Me-Leu)]",–
17.73,5.21,2.7,4.25,"CC(C)C[C@@H]1NC(=O)[C@H](CC(C)C)N(C)C(=O)[C@H](CC(C)C)NC(=O)[C@@H](CC(C)C)N(C)C(=O)[C@@H](Cc2ccccc2)NC1=O [Compound 19, cyclo(D-Phe-D-N-Me-Leu-Leu-N-Me-Leu-Leu)]",–
16.15,7.41,3.35,9.68,"CC(C)C[C@@H]1NC(=O)[C@H](Cc2ccccc2)NC(=O)[C@H](CC(C)C)N(C)C(=O)[C@@H](CC(C)C)NC(=O)[C@H](CC(C)C)NC1=O [Compound 20, cyclo(Phe-Leu-Leu-D-Leu-N-Me-Leu)]",–
18.6,6.47,8.21,15.3,"CC(C)C[C@H]1NC(=O)[C@H](Cc2ccccc2)NC(=O)[C@H](CC(C)C)N(C)C(=O)[C@@H](CC(C)C)NC(=O)[C@@H](CC(C)C)NC1=O [Compound 21, cyclo(Phe-D-Leu-D-Leu-D-Leu-N-Me-Leu)]",–
9.13,5.85,4.32,26.62,"CC(C)C[C@@H]1NC(=O)[C@@H](Cc2ccccc2)NC(=O)[C@H](CC(C)C)N(C)C(=O)[C@H](CC(C)C)NC(=O)[C@@H](CC(C)C)NC1=O [Compound 23, cyclo(D-Phe-Leu-D-Leu-Leu-N-Me-Leu)]",–
9.26,3.45,7.04,7.92,"CC(C)C[C@@H]1NC(=O)[C@H](Cc2ccccc2)NC(=O)[C@@H](CC(C)C)N(C)C(=O)[C@H](CC(C)C)NC(=O)[C@H](CC(C)C)NC1=O [Compound 24, cyclo(Phe-Leu-Leu-Leu-D-N-Me-Leu)]",–
–,–,–,–,CC(C)C[C@H]1NC(=O)[C@@H](Cc2ccccc2)NC(=O)[C@H](CC(C)C)N(C)C(=O)[C@@H](CC(C)C)NC(=O)[C@H](CC(C)C)N(C)C1=O [cyclo(D-Phe-D-Leu-N-Me-Leu-D-Leu-N-Me-Leu)],"ring closure, yield after HPLC ([5]; from H-dPhe-dLeu-MeLeu-dLeu-MeLeu-OH?): 53.9%"
–,–,–,–,CC(C)C[C@@H]1NC(=O)[C@H](CC(C)C)N(C)C(=O)[C@H](CC(C)C)NC(=O)[C@@H](CC(C)C)N(C)C(=O)[C@@H](Cc2ccccc2)NC1=O [cyclo(D-Phe-D-N-Me-Leu-Leu-N-Me-Leu-Leu)],"ring closure, yield after HPLC ([5]; from H-dPhe-dMeLeu-Leu-MeLeu-Leu-OH?): 45.5%"
–,–,–,–,CC(C)C[C@@H]1NC(=O)[C@@H](Cc2ccccc2)NC(=O)[C@@H](CC(C)C)N(C)C(=O)[C@@H](CC(C)C)NC(=O)[C@@H](CC(C)C)NC1=O [cyclo(D-Phe-Leu-D-Leu-D-Leu-D-N-Me-Leu)],"ring closure, yield after HPLC ([5]; from H-dPhe-Leu-dLeu-dLeu-dMeLeu-OH?): 50%"
–,–,–,–,CC(C)C[C@@H]1NC(=O)[C@@H](Cc2ccccc2)NC(=O)[C@H](CC(C)C)N(C)C(=O)[C@H](CC(C)C)NC(=O)[C@@H](CC(C)C)NC1=O [cyclo(D-Phe-Leu-D-Leu-Leu-N-Me-Leu)],"ring closure, yield after HPLC ([5]; from H-dPhe-Leu-dLeu-Leu-MeLeu-OH?): 48.5%"
–,–,–,–,CC(C)C[C@@H]1NC(=O)[C@@H](CC(C)C)N(C)C(=O)[C@H](CC(C)C)NC(=O)[C@@H](Cc2ccccc2)NC(=O)[C@@H](CC(C)C)NC1=O [cyclo(D-Phe-Leu-D-N-Me-Leu-Leu-D-Leu)],"ring closure, yield after HPLC ([5]; from H-dPhe-Leu-dMeLeu-Leu-dLeu-OH?): 53.8%"
–,–,–,–,CC(C)C[C@@H]1NC(=O)[C@H](CC(C)C)NC(=O)[C@@H](Cc2ccccc2)NC(=O)[C@H](CC(C)C)N(C)C(=O)[C@@H](CC(C)C)NC1=O [cyclo(D-Phe-Leu-Leu-D-Leu-N-Me-Leu)],"ring closure, yield after HPLC ([5]; from H-dPhe-Leu-Leu-dLeu-MeLeu-OH?): 65.4%"
–,–,–,–,CC(C)C[C@@H]1NC(=O)[C@@H](Cc2ccccc2)NC(=O)[C@@H](CC(C)C)NC(=O)[C@@H](CC(C)C)NC(=O)[C@H](CC(C)C)N(C)C1=O [cyclo(D-Phe-Leu-N-Me-Leu-D-Leu-D-Leu)],"ring closure, yield after HPLC ([5]; from H-dPhe-Leu-MeLeu-dLeu-dLeu-OH?): 61.5%"
–,–,–,–,CC(C)C[C@@H]1NC(=O)[C@H](CC(C)C)N(C)C(=O)[C@@H](Cc2ccccc2)NC(=O)[C@@H](CC(C)C)N(C)C(=O)[C@H](CC(C)C)NC1=O [cyclo(D-Phe-N-Me-Leu-Leu-Leu-D-N-Me-Leu)],"ring closure, yield after HPLC ([5]; from H-dPhe-MeLeu-Leu-Leu-dMeLeu-OH?): 45.1%"
–,–,–,–,CC(C)C[C@H]1NC(=O)[C@H](Cc2ccccc2)NC(=O)[C@H](CC(C)C)N(C)C(=O)[C@@H](CC(C)C)NC(=O)[C@@H](CC(C)C)NC1=O [cyclo(Phe-D-Leu-D-Leu-D-Leu-N-Me-Leu)],"ring closure, yield after HPLC ([5]; from H-Phe-dLeu-dLeu-dLeu-MeLeu-OH?): 55.1%"
–,–,–,–,CC(C)C[C@H]1NC(=O)[C@@H](CC(C)C)NC(=O)[C@H](CC(C)C)N(C)C(=O)[C@@H](CC(C)C)NC(=O)[C@H](Cc2ccccc2)NC1=O [cyclo(Phe-D-Leu-N-Me-Leu-D-Leu-D-Leu)],"ring closure, yield after HPLC ([5]; from H-Phe-dLeu-MeLeu-dLeu-dLeu-OH?): 57.3%"
–,–,–,–,CC(C)C[C@@H]1NC(=O)[C@H](Cc2ccccc2)NC(=O)[C@@H](CC(C)C)NC(=O)[C@@H](CC(C)C)NC(=O)[C@@H](CC(C)C)N(C)C1=O [cyclo(Phe-Leu-D-N-Me-Leu-D-Leu-D-Leu)],"ring closure, yield after HPLC ([5]; from H-Phe-Leu-dMeLeu-dLeu-dLeu-OH?): 51.7%"
–,–,–,–,CC(C)C[C@@H]1NC(=O)[C@H](Cc2ccccc2)NC(=O)[C@H](CC(C)C)N(C)C(=O)[C@@H](CC(C)C)NC(=O)[C@H](CC(C)C)NC1=O [cyclo(Phe-Leu-Leu-D-Leu-N-Me-Leu)],"ring closure, yield after HPLC ([5]; from H-Phe-Leu-Leu-dLeu-MeLeu-OH?): 46.1%"
–,–,–,–,CC(C)C[C@@H]1NC(=O)[C@H](Cc2ccccc2)NC(=O)[C@@H](CC(C)C)N(C)C(=O)[C@H](CC(C)C)NC(=O)[C@H](CC(C)C)NC1=O [cyclo(Phe-Leu-Leu-Leu-D-N-Me-Leu)],"ring closure, yield after HPLC ([5]; from H-Phe-Leu-Leu-Leu-dMeLeu-OH?): 66.4%"
